The target in assay [1] is T1, H390A-LRH-1 (Homo sapiens, UniProt O00482, H390A).
T1 construct: expressed in transfected cells; host or cells: Hela cells
More on the design: method as in PMID 27694446. Conditions: cited from earlier work.

Assay [2] addresses T2, Liver receptor homolog-1 (LRH-1) ligand binding domain (UniProt O00482 299-541).
T2 construct: also called LRH-1 LBD
In words: crystal structure; LRH-1 LBD (His-tag cleaved) saturated with SS-RJW100, combined with the Tif2 NR Box 3 peptide, 6 mg/ml; hanging drop vapor diffusion at 18 °C with microseeding; 0.05 M sodium acetate pH 4.6, 5–11% PEG4000. The conditions noted are these: both partners purified.

T2 sequence (O00482 299-541): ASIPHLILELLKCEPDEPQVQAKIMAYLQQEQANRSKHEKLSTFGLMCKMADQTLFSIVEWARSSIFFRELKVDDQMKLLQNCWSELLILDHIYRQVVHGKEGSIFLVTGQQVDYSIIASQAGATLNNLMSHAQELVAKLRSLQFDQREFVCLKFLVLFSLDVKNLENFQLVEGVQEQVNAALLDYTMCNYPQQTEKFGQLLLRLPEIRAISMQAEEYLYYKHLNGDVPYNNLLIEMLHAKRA
T1 sequence (O00482 whole entry H390A): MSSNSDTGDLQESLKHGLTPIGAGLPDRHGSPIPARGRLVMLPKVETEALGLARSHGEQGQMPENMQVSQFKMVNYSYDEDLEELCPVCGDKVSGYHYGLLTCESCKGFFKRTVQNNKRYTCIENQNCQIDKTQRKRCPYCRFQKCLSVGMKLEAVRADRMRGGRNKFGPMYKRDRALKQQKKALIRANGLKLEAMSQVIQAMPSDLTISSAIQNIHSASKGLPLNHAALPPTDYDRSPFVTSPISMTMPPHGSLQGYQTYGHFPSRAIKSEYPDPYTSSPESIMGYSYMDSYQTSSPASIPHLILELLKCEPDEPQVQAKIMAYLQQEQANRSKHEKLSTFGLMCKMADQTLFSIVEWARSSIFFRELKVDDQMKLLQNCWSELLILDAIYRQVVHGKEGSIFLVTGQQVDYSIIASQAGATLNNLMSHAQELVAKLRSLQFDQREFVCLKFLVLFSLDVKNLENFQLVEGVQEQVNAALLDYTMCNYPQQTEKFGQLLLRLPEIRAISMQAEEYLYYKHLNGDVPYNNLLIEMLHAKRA

As for `CCC/C=C(\CCC)C1=C(c2ccccc2)[C@]2(Nc3ccccc3)CCC[C@@H]2C1` [GSK8470], the “activation of H390A-LRH-1” value in assay [1] is recorded as “cannot activate”.

B1: peptide corresponding to the NR Box 3 of the Tif2 coactivator (peptide)
peptide: KENALLRYLLDKDDT
notes: source: synthetic peptide (RS Synthesis)
Turning to B1, the binding result in assay [2] is on record as “binds”.

These data come from PMC7747700, “Enantiomer-specific activities of an LRH-1 and SF-1 dual agonist” (Scientific Reports, 2020).
